Here are results for three compounds from US4273923A, “Process for preparing aminoglycoside derivatives” (Shionogi & Co., Ltd., priority 1979, dated 1981).

≈ marks a conversion by molar mass, not a printed value.

Experiment [1] concerns Staphylococcus epidermidis TB-302. The experiment can be described thus: MIC by agar dilution method. Format: cell-based. The note with it: TB302, innoculum size 10^4 CFU/ml, 37° C., 18 to 20 hours, read-out: Minimum Inhibitory Concentration (MIC). An excerpt:
(1) Preparation of bacterial suspensions
(3) Determination of MIC values
In general terms: Agar dilution tests growth on a series of plates holding different concentrations.

For experiment [2], the system named is Escherichia coli W-677/JR 762. The experiment can be described thus: MIC by agar dilution method. Conditions: W677/JR762, 20 h, read-out: Minimum Inhibitory Concentration (MIC).
Experimental: (§1) MIC was determined by the following agar dilution method:
(§2) One loopful of a strain of bacteria to be tested on agar slant was inoculated into a medium for growth of inoculum (Trypto Soy Broth; Eiken Chemical Co.) and incubated at 37° C. overnight.
(§3) (2) Preparation of medium for antibacterial activity test
(§4) A sample solution of aminoglycoside derivative was subjected to serial two-fold dilutions with sterile water. These diluted sample solutions were distributed to the Modified Mueller Hinton Agar medium (Nissui-Seiyaku Co.), mixed gently and allowed to solidify.
(§5) One loopful of the bacterial suspension prepared in (1) was placed on the surface of the medium prepared in (2) containing the aminoglycoside derivative in various concentrations at 10^6 CFU/ml inoculum size.
The test system of experiment [3] is Proteus morganii Morg. 96. The experiment can be described thus: MIC by agar dilution method. Conditions: Morganella morganii, MORG.96, 20 h, read-out: Minimum Inhibitory Concentration (MIC).
Experimental: as §1, §2, §3, §4, §5
Experiment [4] has as its system Klebsiella pneumoniae Kl-168. In words: MIC by agar dilution method. The note with it: KL168, 20 h, read-out: Minimum Inhibitory Concentration (MIC).
Experimental: as §1, §2, §3, §4, §5
The conditions of experiment [5]: compared with kanamycin A; cited from earlier work.

For the compound `NC[C@H]1O[C@H](O[C@H]2[C@H](O)[C@@H](O[C@H]3O[C@H](CO)[C@@H](O)[C@H](N)[C@H]3O)[C@H](N)C[C@@H]2N)[C@H](N)C[C@@H]1O` [TOB, tobramycin], the MIC was 3.1 µg/mL (≈ 6.63 µM) in experiment [1], 50 µg/mL (≈ 107 µM) in experiment [2], 25 µg/mL (≈ 53.5 µM) in experiment [3] and 100 µg/mL (≈ 214 µM) in experiment [4].

Turning to `NCC1=CC[C@@H](N)[C@@H](O[C@H]2[C@H](O)[C@@H](O[C@H]3O[C@H](CO)[C@@H](O)[C@H](N)[C@H]3O)[C@H](N)C[C@@H]2N)O1` [[A], O-[3-amino-3-deoxy-α-D-glucopyranosyl-(1→6)]-O-[2,6-diamino-2,3,4,6-tetradeoxy-α-D-glycero-hex-4-enopyranosyl-(1→4)]-2-deoxy-D-streptamine], the MIC in experiment [1] was found to be 0.2 µg/mL (≈ 0.445 µM); in experiment [2], 12.5 µg/mL (≈ 27.8 µM); in experiment [3], 12.5 µg/mL (≈ 27.8 µM); in experiment [4] it was 50 µg/mL (≈ 111 µM).

For `NCC[C@H](O)C(=O)N[C@@H]1C[C@H](N)[C@@H](O[C@H]2O[C@H](CN)[C@@H](O)[C@H](O)[C@H]2O)[C@H](O)[C@H]1O[C@H]1O[C@H](CO)[C@@H](O)[C@H](N)[C@H]1O` [amikacin], the antimicrobial activity entry in experiment [5] is recorded as “more potent than kanamycin A”.
